Reference: patent publication US10231954B2, “Neurodegenerative therapies” (LYTIX BIOPHARMA AS, priority 2014, dated 2019)
Like-named read-outs stand apart in the source and are kept apart here.

Assays:
Type in all cases: biochemical
MKK6 = target: T1, MKK6 (Homo sapiens, UniProt P52564); assay: Kinase profiling MKK6; conditions: for remaining activity at 100 µM: read-out: residual kinase activity, MKK6
T1 sequence (P52564 1-334): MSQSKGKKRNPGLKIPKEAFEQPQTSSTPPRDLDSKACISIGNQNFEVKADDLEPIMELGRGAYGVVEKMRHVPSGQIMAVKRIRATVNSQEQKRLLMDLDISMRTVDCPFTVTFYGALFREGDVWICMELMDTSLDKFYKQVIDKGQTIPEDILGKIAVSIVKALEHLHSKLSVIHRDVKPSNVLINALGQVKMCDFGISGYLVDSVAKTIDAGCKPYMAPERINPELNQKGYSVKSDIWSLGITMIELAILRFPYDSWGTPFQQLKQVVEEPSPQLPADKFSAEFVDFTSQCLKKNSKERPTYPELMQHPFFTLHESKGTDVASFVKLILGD
From the text: (§1) Any value less that 25 is considered to be highly significant inhibition.

MSK1 = MSK1 (Homo sapiens, UniProt O75582); assay: Kinase profiling MSK1; conditions: for remaining activity at 100 µM: read-out: residual kinase activity, MSK1
MSK1, sequence (O75582 whole entry, species assumed): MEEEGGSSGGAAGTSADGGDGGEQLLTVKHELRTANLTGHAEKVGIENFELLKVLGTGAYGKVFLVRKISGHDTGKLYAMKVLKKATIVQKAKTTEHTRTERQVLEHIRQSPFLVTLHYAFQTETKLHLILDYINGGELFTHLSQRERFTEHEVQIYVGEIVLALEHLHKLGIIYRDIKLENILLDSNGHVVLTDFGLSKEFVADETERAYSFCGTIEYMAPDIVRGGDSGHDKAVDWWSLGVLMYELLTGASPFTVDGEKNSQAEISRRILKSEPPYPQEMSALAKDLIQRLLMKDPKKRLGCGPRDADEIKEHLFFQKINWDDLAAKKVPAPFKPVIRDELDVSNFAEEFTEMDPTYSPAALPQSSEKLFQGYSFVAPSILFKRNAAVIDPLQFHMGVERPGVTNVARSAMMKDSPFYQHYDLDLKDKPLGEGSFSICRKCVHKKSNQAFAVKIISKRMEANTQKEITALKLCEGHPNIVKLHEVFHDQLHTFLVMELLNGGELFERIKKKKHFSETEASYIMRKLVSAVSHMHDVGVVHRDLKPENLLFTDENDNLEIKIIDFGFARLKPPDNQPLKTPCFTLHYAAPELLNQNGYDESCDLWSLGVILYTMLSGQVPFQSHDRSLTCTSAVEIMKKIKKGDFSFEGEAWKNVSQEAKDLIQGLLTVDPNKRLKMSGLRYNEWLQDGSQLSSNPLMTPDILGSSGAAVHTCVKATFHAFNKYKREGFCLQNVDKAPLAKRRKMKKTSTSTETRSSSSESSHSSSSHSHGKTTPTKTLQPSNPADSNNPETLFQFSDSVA
From the text: as §1

VEG-FR = assay: Kinase profiling VEG-FR
From the text: as §1

IGF-1R = IGF-1R (Homo sapiens, UniProt P08069); assay: Kinase profiling IGF-1R; conditions: for remaining activity at 100 µM: read-out: residual kinase activity, IGF-1R
IGF-1R, sequence (P08069 31-1367, species assumed): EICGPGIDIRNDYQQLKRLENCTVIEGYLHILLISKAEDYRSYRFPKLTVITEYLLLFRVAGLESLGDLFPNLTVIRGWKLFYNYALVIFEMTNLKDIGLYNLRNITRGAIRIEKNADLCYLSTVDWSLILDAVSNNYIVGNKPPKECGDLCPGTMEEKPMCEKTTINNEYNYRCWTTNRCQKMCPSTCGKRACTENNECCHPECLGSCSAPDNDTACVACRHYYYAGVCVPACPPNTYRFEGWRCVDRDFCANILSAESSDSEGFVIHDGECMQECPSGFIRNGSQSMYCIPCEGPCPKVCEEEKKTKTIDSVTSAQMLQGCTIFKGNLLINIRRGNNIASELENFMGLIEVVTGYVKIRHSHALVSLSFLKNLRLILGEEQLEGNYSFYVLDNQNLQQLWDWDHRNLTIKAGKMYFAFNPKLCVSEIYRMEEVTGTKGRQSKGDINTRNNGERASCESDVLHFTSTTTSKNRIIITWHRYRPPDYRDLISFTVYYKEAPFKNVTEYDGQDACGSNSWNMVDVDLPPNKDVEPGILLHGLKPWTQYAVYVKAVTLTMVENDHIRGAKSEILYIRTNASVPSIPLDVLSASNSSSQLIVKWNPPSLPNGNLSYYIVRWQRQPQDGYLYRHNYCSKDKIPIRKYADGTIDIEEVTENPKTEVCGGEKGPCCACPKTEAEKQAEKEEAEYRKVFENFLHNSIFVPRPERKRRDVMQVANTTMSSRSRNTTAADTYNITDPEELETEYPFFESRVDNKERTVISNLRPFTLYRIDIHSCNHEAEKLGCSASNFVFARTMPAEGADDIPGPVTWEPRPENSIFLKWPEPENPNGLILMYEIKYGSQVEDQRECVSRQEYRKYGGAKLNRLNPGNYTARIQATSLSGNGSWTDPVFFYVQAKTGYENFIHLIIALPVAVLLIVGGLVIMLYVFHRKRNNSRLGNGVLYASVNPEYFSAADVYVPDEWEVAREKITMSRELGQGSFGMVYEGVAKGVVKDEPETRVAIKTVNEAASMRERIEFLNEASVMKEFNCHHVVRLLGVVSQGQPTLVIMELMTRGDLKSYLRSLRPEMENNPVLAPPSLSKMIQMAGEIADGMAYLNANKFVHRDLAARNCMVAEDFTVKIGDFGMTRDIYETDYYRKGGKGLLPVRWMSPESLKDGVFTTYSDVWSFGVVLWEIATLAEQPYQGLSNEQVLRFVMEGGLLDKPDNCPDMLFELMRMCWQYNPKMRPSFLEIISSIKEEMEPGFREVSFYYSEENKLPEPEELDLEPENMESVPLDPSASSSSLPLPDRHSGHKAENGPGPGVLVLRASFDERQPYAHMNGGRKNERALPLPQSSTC
From the text: as §1

SGK1 = target: T2, SGK1 (Homo sapiens, UniProt O00141); assay: Kinase profiling SGK1; conditions: for remaining activity at 100 µM: read-out: residual kinase activity, SGK1
T2 sequence (O00141 1-431): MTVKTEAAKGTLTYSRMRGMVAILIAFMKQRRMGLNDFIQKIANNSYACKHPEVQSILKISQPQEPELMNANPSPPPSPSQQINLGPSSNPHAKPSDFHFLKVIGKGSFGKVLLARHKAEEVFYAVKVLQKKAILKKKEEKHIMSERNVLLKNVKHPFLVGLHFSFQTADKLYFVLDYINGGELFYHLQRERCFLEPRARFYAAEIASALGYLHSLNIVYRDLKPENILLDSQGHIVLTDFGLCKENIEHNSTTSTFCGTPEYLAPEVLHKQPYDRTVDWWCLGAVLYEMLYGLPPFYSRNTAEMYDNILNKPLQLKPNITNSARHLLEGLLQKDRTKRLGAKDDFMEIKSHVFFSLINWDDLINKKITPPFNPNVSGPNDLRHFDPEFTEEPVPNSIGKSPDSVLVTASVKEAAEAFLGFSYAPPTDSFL
From the text: as §1

p38d MAPK = target: T3, p38d MAPK (Homo sapiens, UniProt O15264); assay: Kinase profiling p38d MAPK; conditions: for remaining activity at 100 µM: read-out: residual kinase activity, p38d MAPK
T3 sequence (O15264 1-365): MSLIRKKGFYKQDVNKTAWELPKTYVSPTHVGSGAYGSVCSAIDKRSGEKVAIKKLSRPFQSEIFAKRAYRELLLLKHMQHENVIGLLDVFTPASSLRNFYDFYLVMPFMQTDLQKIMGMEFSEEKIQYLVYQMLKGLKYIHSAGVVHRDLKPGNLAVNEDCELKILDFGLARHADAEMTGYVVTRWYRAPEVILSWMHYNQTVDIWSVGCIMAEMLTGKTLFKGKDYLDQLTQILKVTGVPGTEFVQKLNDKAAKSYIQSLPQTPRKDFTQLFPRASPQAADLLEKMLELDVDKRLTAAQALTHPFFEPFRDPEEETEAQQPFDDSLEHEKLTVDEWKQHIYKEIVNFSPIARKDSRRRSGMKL
From the text: as §1

IRAK4 = target: T4, IRAK4 (Homo sapiens, UniProt Q9NWZ3); assay: Kinase profiling IRAK4; conditions: for remaining activity at 100 µM: read-out: residual kinase activity, IRAK4
T4 sequence (Q9NWZ3 1-460): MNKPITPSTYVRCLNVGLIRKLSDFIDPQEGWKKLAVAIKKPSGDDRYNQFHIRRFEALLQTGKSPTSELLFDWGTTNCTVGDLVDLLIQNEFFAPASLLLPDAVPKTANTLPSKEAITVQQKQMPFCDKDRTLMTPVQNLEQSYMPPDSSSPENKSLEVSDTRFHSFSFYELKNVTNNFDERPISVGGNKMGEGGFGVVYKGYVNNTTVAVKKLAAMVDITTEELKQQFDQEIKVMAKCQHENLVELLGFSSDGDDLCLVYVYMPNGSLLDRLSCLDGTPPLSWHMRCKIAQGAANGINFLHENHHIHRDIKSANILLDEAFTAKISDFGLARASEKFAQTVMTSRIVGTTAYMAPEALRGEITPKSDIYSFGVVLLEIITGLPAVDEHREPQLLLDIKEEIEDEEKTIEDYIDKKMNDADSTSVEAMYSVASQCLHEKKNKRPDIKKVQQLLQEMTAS
From the text: as §1

PKA = PKA (Homo sapiens, UniProt P17612); assay: Kinase profiling PKA; conditions: for remaining activity at 100 µM: read-out: residual kinase activity, PKA
From the text: as §1

PKBa = PKBa (Homo sapiens, UniProt P31749); assay: Kinase profiling PKBa; conditions: for residual kinase activity, PKBa: 100 micromolar inhibitor concentration, 100 is no change; for remaining activity at 100 µM: read-out: residual kinase activity, PKBa
PKBa, sequence (P31749 whole entry): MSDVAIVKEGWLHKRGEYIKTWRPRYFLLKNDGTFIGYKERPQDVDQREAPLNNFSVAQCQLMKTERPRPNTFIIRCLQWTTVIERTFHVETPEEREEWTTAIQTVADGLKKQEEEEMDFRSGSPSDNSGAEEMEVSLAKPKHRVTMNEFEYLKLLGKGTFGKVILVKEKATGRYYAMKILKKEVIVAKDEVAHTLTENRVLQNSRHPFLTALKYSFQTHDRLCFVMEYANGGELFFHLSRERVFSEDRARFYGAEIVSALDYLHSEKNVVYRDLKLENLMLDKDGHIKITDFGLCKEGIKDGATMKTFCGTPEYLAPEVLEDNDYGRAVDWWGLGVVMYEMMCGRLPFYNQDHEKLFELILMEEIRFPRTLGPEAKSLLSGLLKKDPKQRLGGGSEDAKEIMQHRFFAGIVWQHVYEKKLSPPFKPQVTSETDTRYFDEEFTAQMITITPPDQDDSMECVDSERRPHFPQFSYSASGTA
From the text: as §1

TTK = target: T5, TTK (Homo sapiens, UniProt P33981); assay: Kinase profiling TTK; conditions: for remaining activity at 100 µM: read-out: residual kinase activity, TTK
T5 sequence (P33981 1-857): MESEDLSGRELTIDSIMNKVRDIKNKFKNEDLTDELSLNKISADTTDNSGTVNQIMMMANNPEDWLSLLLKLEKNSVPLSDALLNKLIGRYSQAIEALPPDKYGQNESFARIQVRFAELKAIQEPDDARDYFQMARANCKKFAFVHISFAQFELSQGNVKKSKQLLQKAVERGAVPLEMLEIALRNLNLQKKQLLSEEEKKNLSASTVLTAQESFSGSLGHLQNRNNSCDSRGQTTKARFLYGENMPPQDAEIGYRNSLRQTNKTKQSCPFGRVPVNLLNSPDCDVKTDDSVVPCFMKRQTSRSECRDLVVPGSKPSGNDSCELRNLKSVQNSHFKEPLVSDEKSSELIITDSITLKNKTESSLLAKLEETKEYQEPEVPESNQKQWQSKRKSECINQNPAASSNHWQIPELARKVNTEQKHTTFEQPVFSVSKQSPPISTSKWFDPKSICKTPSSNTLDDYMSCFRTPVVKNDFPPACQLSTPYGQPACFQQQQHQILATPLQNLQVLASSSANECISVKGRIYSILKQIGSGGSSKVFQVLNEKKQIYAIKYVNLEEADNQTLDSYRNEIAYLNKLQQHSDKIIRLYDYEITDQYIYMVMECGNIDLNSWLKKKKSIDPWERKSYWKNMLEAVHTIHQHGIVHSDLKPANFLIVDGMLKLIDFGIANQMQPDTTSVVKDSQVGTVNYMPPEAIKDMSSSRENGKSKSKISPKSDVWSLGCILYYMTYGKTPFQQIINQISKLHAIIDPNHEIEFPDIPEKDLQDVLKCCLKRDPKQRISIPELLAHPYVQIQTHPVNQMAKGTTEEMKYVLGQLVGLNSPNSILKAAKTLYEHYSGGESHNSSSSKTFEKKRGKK
From the text: as §1

ROCK 2 = ROCK 2 (Homo sapiens, UniProt O75116); assay: Kinase profiling ROCK 2; conditions: for remaining activity at 100 µM: read-out: residual kinase activity, ROCK 2
ROCK 2, sequence (O75116 whole entry, species assumed): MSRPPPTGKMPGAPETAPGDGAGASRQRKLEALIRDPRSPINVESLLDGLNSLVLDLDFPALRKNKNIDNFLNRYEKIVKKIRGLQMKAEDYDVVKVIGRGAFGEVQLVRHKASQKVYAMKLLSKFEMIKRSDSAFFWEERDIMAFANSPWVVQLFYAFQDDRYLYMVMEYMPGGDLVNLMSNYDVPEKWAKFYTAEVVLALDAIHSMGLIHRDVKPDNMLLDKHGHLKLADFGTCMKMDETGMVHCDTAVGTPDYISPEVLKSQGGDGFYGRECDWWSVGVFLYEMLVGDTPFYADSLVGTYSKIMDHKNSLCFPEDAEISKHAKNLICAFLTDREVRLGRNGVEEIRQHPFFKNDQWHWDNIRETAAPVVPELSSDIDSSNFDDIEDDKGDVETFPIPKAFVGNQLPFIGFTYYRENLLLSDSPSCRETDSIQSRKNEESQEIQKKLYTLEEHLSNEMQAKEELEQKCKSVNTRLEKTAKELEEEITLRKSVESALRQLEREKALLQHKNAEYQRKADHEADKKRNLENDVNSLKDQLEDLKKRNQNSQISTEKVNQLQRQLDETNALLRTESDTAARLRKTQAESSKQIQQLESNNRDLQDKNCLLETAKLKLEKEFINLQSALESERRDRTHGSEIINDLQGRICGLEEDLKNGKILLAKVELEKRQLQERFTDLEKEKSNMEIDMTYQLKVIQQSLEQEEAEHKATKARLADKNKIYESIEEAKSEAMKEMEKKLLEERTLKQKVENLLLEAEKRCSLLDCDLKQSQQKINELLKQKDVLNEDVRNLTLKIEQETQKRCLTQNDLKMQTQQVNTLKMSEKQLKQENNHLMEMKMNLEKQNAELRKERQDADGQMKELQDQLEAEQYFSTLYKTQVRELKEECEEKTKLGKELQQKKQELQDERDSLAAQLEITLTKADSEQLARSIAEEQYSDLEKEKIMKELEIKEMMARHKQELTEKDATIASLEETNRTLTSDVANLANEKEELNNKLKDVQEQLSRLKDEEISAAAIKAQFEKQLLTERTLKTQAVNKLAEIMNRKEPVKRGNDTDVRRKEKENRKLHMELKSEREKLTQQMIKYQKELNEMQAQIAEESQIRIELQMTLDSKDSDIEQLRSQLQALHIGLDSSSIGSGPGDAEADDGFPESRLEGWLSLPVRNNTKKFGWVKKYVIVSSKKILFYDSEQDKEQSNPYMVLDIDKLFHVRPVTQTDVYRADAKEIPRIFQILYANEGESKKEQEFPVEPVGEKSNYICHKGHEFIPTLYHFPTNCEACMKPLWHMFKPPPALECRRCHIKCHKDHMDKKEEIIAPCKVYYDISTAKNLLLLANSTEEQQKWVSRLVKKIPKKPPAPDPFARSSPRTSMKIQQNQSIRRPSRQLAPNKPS
From the text: as §1

[1] = 100 micromolar inhibitor concentration, 100 is no change
[2] = 100 micromolar inhibitor, 100 = no change

| SMILES | residual kinase activity, MKK6 (MKK6; [1]) | residual kinase activity, MSK1 (MSK1; [1]) | residual kinase activity, VEG-FR (VEG-FR; [1]) | residual kinase activity, IGF-1R (IGF-1R; [1]) | residual kinase activity, SGK1 (SGK1; [1]) | residual kinase activity, p38d MAPK (p38d MAPK; [1]) | residual kinase activity, IRAK4 (IRAK4; [1]) | residual kinase activity, PKA (PKA; [1]) | residual kinase activity, PKBa (PKBa) | residual kinase activity, TTK (TTK; [1]) | residual kinase activity, ROCK 2 (ROCK 2; [1]) | also measured |
| --- | --- | --- | --- | --- | --- | --- | --- | --- | --- | --- | --- | --- |
| O=C(Nc1nc2ccc(O)cc2s1)c1ccccc1 [Compound 03-60] | 109 | 31 | 5 | 18 | 41 | 75 | 22 | 97 | 79 | 19 | 11 | – |
| CC(=O)Nc1nc2ccc(C#N)cc2s1 [Compound 01-94] | – | – | 11 | – | – | – | – | – | – | – | – | remaining activity at 100 µM (MKK6; [1]): 98%; remaining activity at 100 µM (MSK1; [1]): 81%; remaining activity at 100 µM (IGF-1R; [1]): 78%; remaining activity at 100 µM (SGK1; [1]): 40%; remaining activity at 100 µM (p38d MAPK; [1]): 69%; remaining activity at 100 µM (IRAK4; [1]): 10%; remaining activity at 100 µM (PKA; [1]): 93%; remaining activity at 100 µM (PKBa): 95%; remaining activity at 100 µM (TTK; [1]): 33%; remaining activity at 100 µM (ROCK 2; [1]): 69% |
| COc1ccc2sc(NC(C)=O)nc2c1 [Compound 03-21] | – | – | 71 | – | – | – | – | – | – | – | – | remaining activity at 100 µM (MKK6; [1]): 117%; remaining activity at 100 µM (MSK1; [1]): 93%; remaining activity at 100 µM (IGF-1R; [1]): 78%; remaining activity at 100 µM (SGK1; [1]): 82%; remaining activity at 100 µM (p38d MAPK; [1]): 75%; remaining activity at 100 µM (IRAK4; [1]): 52%; remaining activity at 100 µM (PKA; [1]): 11%; remaining activity at 100 µM (PKBa): 91%; remaining activity at 100 µM (TTK; [1]): 67%; remaining activity at 100 µM (ROCK 2; [1]): 52% |
| O=C(Nc1nc2ccc(O)cc2s1)c1ccncc1 [Compound 08-42] | 101 | 92 | 20 | 88 | 60 | 65 | 42 | 91 | 90 | 32 | 43 | – |
| CC(=O)Nc1cccc(NC(=O)c2nc3ccc(O)cc3s2)c1 [Compound 03-07, N-(3-acetamidophenyl)-6-hydroxybenzo[d]thiazole-2-carboxamide] | – | – | – | – | – | – | – | – | – | – | – | remaining activity at 100 µM (MKK6; [2]): 114%; remaining activity at 100 µM (MSK1; [2]): 62%; residual kinase activity, VEG-FR (VEG-FR; [2]): 28; remaining activity at 100 µM (IGF-1R; [2]): 96%; remaining activity at 100 µM (SGK1; [2]): 64%; remaining activity at 100 µM (p38d MAPK; [2]): 81%; remaining activity at 100 µM (IRAK4; [2]): 74%; remaining activity at 100 µM (PKA; [2]): 91%; remaining activity at 100 µM (PKBa; [2]): 103%; remaining activity at 100 µM (TTK; [2]): 28%; remaining activity at 100 µM (ROCK 2; [2]): 27% |
| O=C(Nc1nc2cc(O)ccc2s1)c1ccccn1 [Compound 03-13] | 105 | 100 | 24 | 84 | 74 | 99 | 55 | 102 | 107 | 53 | 96 | – |
| O=C(Nc1nc2ccc(O)cc2s1)c1ccccn1 [Compound 03-12] | 99 | 90 | 17 | 54 | 88 | 77 | 54 | 97 | 74 | 36 | 68 | – |
| O=C(Nc1nc2ccc(O)cc2s1)c1cccnc1 [Compound 08-44] | 107 | 49 | 21 | 54 | 51 | 62 | 32 | 92 | 83 | 22 | 42 | – |
